For 23 molecules, IC50 results are on record in US20260308159A1, “BICYCLIC HETEROARYLAMIDES HAVING GPR68 MODULATING ACTIVITY” (RECURSION PHARMACEUTICALS, INC., priority 2023, published 2026).

This test concerns the target T1, human GPR68 (Homo sapiens, UniProt Q15743).
T1 construct: encoding full-length human GPR68 (uniprot ID: Q15743); expressed in transfected cells; host or cells: HEK293T
Put plainly: GPR68 Biochemical Assay (Promega GloSensor cAMP assay, GPR68 antagonism). The format is cell-based. The note with it: HEK293T cells transiently expressing hGPR68, antagonism of pH 5.5 stimulated cAMP, 15 min, read-out: hGPR68 IC50. In short, it runs like this: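 HEK293T cells transiently co-transfected with full-length human GPR68 and GloSensor plasmids, preloaded 60 min with GloSensor substrate in pH 8.0 buffer. Compounds (9-point half-log series, top 50 μM final, 0.5% DMSO) added with pH 5.5 buffer (~EC80-90 stimulation); luminescence read after 15 min at room temperature. IC50 from sigmoidal fit of % inhibition.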
(In general: cAMP levels reflect the balance of adenylyl cyclase and phosphodiesterase activity.)

T1 sequence (Q15743 whole entry): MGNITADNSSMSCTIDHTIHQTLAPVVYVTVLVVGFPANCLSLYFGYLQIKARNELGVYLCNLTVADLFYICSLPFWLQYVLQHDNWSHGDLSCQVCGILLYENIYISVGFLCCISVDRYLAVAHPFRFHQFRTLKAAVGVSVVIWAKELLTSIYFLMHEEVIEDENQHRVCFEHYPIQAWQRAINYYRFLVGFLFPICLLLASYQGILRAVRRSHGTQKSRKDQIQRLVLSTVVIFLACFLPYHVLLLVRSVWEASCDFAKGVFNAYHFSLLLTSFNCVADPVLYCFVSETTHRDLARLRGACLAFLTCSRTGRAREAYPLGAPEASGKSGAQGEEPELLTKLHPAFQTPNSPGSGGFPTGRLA

Regarding `COCc1nc2c(C(=O)N[C@@H]3CCS(=O)(=O)c4ccccc43)ccnn2c1C(N)=O` [Compound 219, 2-(methoxymethyl)-N8-[(4R)-1,1-dioxo-3,4-dihydro-2H-thiochromen-4-yl]imidazo[1,2-b]pyridazine-3,8-dicarboxamide], the IC50 was under 50 nM.

As to `COCc1nc2c(C(=O)N[C@H]3CCS(=O)(=O)c4ccccc43)ccnn2c1C(N)=O` [Compound 220, 2-(methoxymethyl)-N8-[(4S)-1,1-dioxo-3,4-dihydro-2H-thiochromen-4-yl]imidazo[1,2-b]pyridazine-3,8-dicarboxamide], the IC50 is 50 to 500 nM.

For `COCc1nc2c(C(=O)NC3CCS(=O)(=O)c4ccccc43)ccnn2c1C(N)=O` (centres unmarked) [Compound 221, N8-(1,1-dioxo-3,4-dihydro-2H-thiochromen-4-yl)-2-(methoxymethyl)imidazo[1,2-b]pyridazine-3,8-dicarboxamide], the IC50 was 50 to 500 nM.

As for `NC(=O)c1c(C2CC2)nc2c(C(=O)NC3CS(=O)(=O)c4ccccc43)ccnn12` (centres unmarked) [Compound 222, 2-cyclopropyl-N8-(1,1-dioxo-2,3-dihydrobenzothiophen-3-yl) imidazo[1,2-b]pyridazine-3,8-dicarboxamide], the IC50 was under 50 nM.

Turning to `COCc1nc2c(C(=O)NC3CS(=O)(=O)c4ccccc43)ccnn2c1C(N)=O` (centres unmarked) [Compound 223, N8-(1,1-dioxo-2,3-dihydrobenzothiophen-3-yl)-2-(methoxymethyl)imidazo[1,2-b]pyridazine-3,8-dicarboxamide], the IC50 was under 50 nM.

Consider `COCc1nn2c(C(=O)N[C@H]3C[C@H](OC(F)(F)F)C3)ccnc2c1C(N)=O` [Compound 224, 2-(methoxymethyl)-N7-[trans-3-(trifluoromethoxy)cyclobutyl]pyrazolo[1,5-a]pyrimidine-3,7-dicarboxamide], for which the IC50 is 50 to 500 nM.

Consider `COCc1nn2c(C(=O)NC3CS(=O)(=O)C3)ccnc2c1C(N)=O` [Compound 225, N7-(1,1-dioxothietan-3-yl)-2-(methoxymethyl)pyrazolo[1,5-a]pyrimidine-3,7-dicarboxamide], for which the IC50 is under 50 nM.

For `COCc1nn2c(C(=O)NC3CCC(F)(F)c4ccccc43)cc(C)nc2c1C(N)=O` (centres unmarked) [Compound 226, N7-(4,4-difluorotetralin-1-yl)-2-(methoxymethyl)-5-methyl-pyrazolo[1,5-a]pyrimidine-3,7-dicarboxamide], the IC50 is under 50 nM.

With `COCc1nn2c(C(=O)NC3Cc4ccccc4C3)cc(C)nc2c1C(N)=O` [Compound 227, N7-indan-2-yl-2-(methoxymethyl)-5-methyl-pyrazolo[1,5-a]pyrimidine-3,7-dicarboxamide], the IC50 is under 50 nM.

For the molecule `CC(C)c1nn2c(C(=O)NC3CS(=O)(=O)c4ccccc43)ccnc2c1C(N)=O` (centres unmarked) [Compound 228, N7-(1,1-dioxo-2,3-dihydrobenzothiophen-3-yl)-2-isopropyl-pyrazolo[1,5-a]pyrimidine-3,7-dicarboxamide], the IC50 is under 50 nM.

Turning to `NC(=O)c1c(C2CC2)nn2c(C(=O)NC3CCS(=O)(=O)c4ccccc43)ccnc12` (centres unmarked) [Compound 229, 2-cyclopropyl-N7-(1,1-dioxo-3,4-dihydro-2H-thiochromen-4-yl)pyrazolo[1,5-a]pyrimidine-3,7-dicarboxamide], the IC50 was under 50 nM.

For the molecule `CC(C)c1nn2c(C(=O)NC3CCS(=O)(=O)c4ccccc43)ccnc2c1C(N)=O` (centres unmarked) [Compound 230, N7-(1,1-dioxo-3,4-dihydro-2H-thiochromen-4-yl)-2-isopropyl-pyrazolo[1,5-a]pyrimidine-3,7-dicarboxamide], the IC50 is under 50 nM.

Take `NC(=O)c1c(C2CC2)nn2c(C(=O)NC3CS(=O)(=O)c4ccccc43)ccnc12` (centres unmarked) [Compound 231, 2-cyclopropyl-N7-(1,1-dioxo-2,3-dihydrobenzothiophen-3-yl)pyrazolo[1,5-a]pyrimidine-3,7-dicarboxamide]: the IC50 is under 50 nM.

Take `COCc1nn2c(C(=O)NC3CC(F)(F)c4ccccc43)cc(C)nc2c1C(N)=O` (centres unmarked) [Compound 232, N7-(3,3-difluoroindan-1-yl)-2-(methoxymethyl)-5-methyl-pyrazolo[1,5-a]pyrimidine-3,7-dicarboxamide]: the IC50 is under 50 nM.

Turning to `COCc1nn2c(C(=O)N[C@@H]3CCS(=O)(=O)c4ccccc43)ccnc2c1C(N)=O` [Compound 233, N7-[(4R)-1,1-dioxo-3,4-dihydro-2H-thiochromen-4-yl]-2-(methoxymethyl)pyrazolo[1,5-a]pyrimidine-3,7-dicarboxamidfe], the IC50 is under 50 nM.

Regarding `NC(=O)c1c(C2CC2)nn2c(C(=O)N[C@@H]3CCS(=O)(=O)c4ccccc43)ccnc12` [Compound 235, 2-cyclopropyl-N7-[(4R)-1,1-dioxo-3,4-dihydro-2H-thiochromen-4-yl]pyrazolo[1,5-a]pyrimidine-3,7-dicarboxamide], the IC50 was under 50 nM.

For `NC(=O)c1c(C2CC2)nn2c(C(=O)N[C@H]3CCS(=O)(=O)c4ccccc43)ccnc12` [Compound 236, 2-cyclopropyl-N7-[(4S)-1,1-dioxo-3,4-dihydro-2H-thiochromen-4-yl]pyrazolo[1,5-a]pyrimidine-3,7-dicarboxamide], the IC50 is under 50 nM.

For the molecule `COCc1nn2c(C(=O)NC3CC(F)(F)c4ccc(F)cc43)ccnc2c1C(N)=O` (centres unmarked) [Compound 237, 2-(Methoxymethyl)-N7-(3,3,6-trifluoroindan-1-yl)pyrazolo[1,5-a]pyrimidine-3,7-dicarboxamide], the IC50 was under 50 nM.

Consider `COCc1nn2c(C(=O)N[C@@H]3COc4c3ccc(F)c4F)ccnc2c1C(N)=O` [Compound 238, N7-[(3S)-6,7-difluoro-2,3-dihydrobenzofuran-3-yl]-2-(methoxymethyl)pyrazolo[1,5-a]pyrimidine-3,7-dicarboxamide], for which the IC50 is under 50 nM.

As for `COCc1nn2c(C(=O)NC3CCC(F)(F)c4cc(F)ccc43)ccnc2c1C(N)=O` (centres unmarked) [Compound 239, 2-(methoxymethyl)-N7-(4,4,6-trifluorotetralin-1-yl)pyrazolo[1,5-a]pyrimidine-3,7-dicarboxamide], the IC50 was under 50 nM.

On to `COCc1nn2c(C(=O)NC3CCC(F)(F)CC3)cc(C)nc2c1C(N)=O` [Compound 240, N7-(4,4-difluorocyclohexyl)-2-(methoxymethyl)-5-methyl-pyrazolo[1,5-a]pyrimidine-3,7-dicarboxamide], for which the IC50 was under 50 nM.

Consider `COCc1nn2c(C(=O)NC3CCS(=O)(=O)c4ccccc43)cc(C)nc2c1C(N)=O` (centres unmarked) [Compound 241, N7-(1,1-dioxo-3,4-dihydro-2H-thiochromen-4-yl)-2-(methoxymethyl)-5-methyl-pyrazolo[1,5-a]pyrimidine-3,7-dicarboxamide], for which the IC50 is 50 to 500 nM.

`Cc1cc(C(=O)NC2CCS(=O)(=O)c3ccccc32)n2nc(C3CC3)c(C(N)=O)c2n1` (centres unmarked) [Compound 242, 2-cyclopropyl-N7-(1,1-dioxo-3,4-dihydro-2H-thiochromen-4-yl)-5-methyl-pyrazolo[1,5-a]pyrimidine-3,7-dicarboxamide]: the half-inhibitory concentration (IC50) was under 50 nM.

As a reminder, the IC50 is the concentration that gives 50% inhibition.
